Measurements taken from US10350219B2, “Antimicrobial compositions and methods of making the same” (priority 2013, dated 2019).

Columns and labels:
[1] = Steam sterilization (thermal stability, discoloration); format: physicochemical; settings: hydrogel
Procedure: (b) Steam Sterilization • One steam sterilization cycle was imposed on gel prototypes to evaluate their ability to withstand elevated temperatures. The gel samples contained in 15 ml or 50 ml PP tubes or other non-hydrogel prototypes (in sealed foil pouches) were examined post sterilization for any adverse temperature effect on its color, viscosity, texture, phase separation etc.
A majority of the hydrogel prototypes of the present disclosure were tested for their ability to withstand elevated temperatures simply by subjecting them to one steam sterilization cycle. The test samples experienced temperature rises from 20 C to 122 C over 15 min, followed by constant temperature of 122 C for 15 min and finally a cool down from 122 C to ˜40 C over 3 h. Thus, the test samples experienced nearly 3.5 h of hostile temperature condition.
“Steam sterilizable” or “heat stable” or “inert to heat” is defined as having no visible sign of discoloration (color change following exposure that will add shade of black, brown, yellow or purple) after one steam sterilization cycle (122 C for 15 min) that includes periods of warming up and final cool down to room temperature (<40 C).

[2] = Table Lamp Light Exposure Test (TLE), discoloration; format: physicochemical; settings: gel with glycerol 10%, clay 4%, silver 0.054% weight; for Gel color after continuous light exposure: After 24 h: 60 W table lamp; for Gel color after continuous light exposure: Fresh: 60 W table lamp at 1 to 1.5 feet
Procedure: (a) Table Lamp Light Exposure Test (TLE) • The samples of the said compositions contained in either glass vials or 15 ml PP tubes (BD Falcon) were placed under a table lamp (turned on) at a distance of 12 to 15 inches for continuous exposure. The incandescent lamp wattage was 60 W. After the desired duration of exposure, the test samples were examined for visible discoloration by holding it against a white plain paper. Non-hydrogel samples were examined against the control samples protected from light.

rats = settings: cited from earlier work
[3] = theor. silver content 110 ppm, ratio of cyanurate/silver ions 5
[4] = theor. silver content 220 ppm, ratio of cyanurate/silver ions 2.5

| Compound | Gel color after continuous light exposure: After 24 h [2] | Gel color after continuous light exposure: Fresh [2] | other results |
| --- | --- | --- | --- |
| O=c1[n-]c(=O)[nH]c(=O)[nH]1.O=c1[n-]c(=O)[nH]c(=O)[nH]1.[Ag+].[Na+] [Na[Ag(C3N3O3H2)2], Sodium silver cyanurate ligand complex Na[Ag(C3N3H2O3)2] or its hydrate] |  |  | Color after steam sterilization [1, 3]: No discoloration; Color before steam sterilization [1, 3]: Hazy to clear; Color after steam sterilization [1, 4]: No discoloration; Color before steam sterilization [1, 4]: Hazy to clear |
| O=C([O-])c1ccccc1.[Ag+] [Silver Benzoate] | Brown black |  |  |
| O=C([O-])CO.[Ag+] [Silver Glycolate] | Brown grey |  |  |
| C=C(CC(=O)[O-])C(=O)[O-].[Ag+].[Ag+] [Silver Itaconate] | Brown black |  |  |
| O=C([O-])/C=C\C(=O)O.[Ag+] [Silver Mono-maleate] | Brown yellow | Smooth hazy gel |  |
| O=C([O-])C(O)C(O)C(=O)O.[Ag+] (centres unmarked) [Silver Mono-tartrate] | Brown black | Hazy gel |  |
| CCC(=O)[O-].[Ag+] [Silver Propionate] | Brown black |  |  |
| O=C1[N-]S(=O)(=O)c2ccccc21.[Ag+] [Silver Saccharinate] |  | Yellow brown |  |
| O=C(O)c1ccccc1 [benzoic acid] |  |  | LD50 (rats): 2530 mg/kg of body weight |
| O=c1[nH]c(=O)[nH]c(=O)[nH]1 [cyanuric acid] |  |  | LD50 (rats): 7700 mg/kg of body weight; lethal dose LD50 (rats; internet source): 7.70 g/kg of body weight |
| Silver Benzene sulfonate | Brown black | Brown after 0.5 h |  |
| Silver Gluconate | Brown black |  |  |
| Silver Sorbate | Brown black |  |  |
